Data on eight molecules can be found in patent US20120100990A1, “4 -AMINOPICOLINATES AND THEIR USE AS HERBICIDES” (SYNGENTA CROP PROTECTION LLC, priority 2009, published 2012).

Each structure is given as a SMILES string.

Format in all cases: in vivo
In assay [1] the test system is Solanum nigrum (SOLNI). The experiment in a line: Pre-emergence biological efficacy, glasshouse pot test. The settings on record: 312 h, 1,000 g/ha, evaluated after 13 days, 100=total damage, 0=no damage, read-out: Percentage damage caused to weed species, pre-emergence, SOLNI. Here is the method: (§1) Seeds of Alopecurus myosuroides (ALOMY), Setaria faberi (SETFA), Echinochloa crus-galli (ECHCG), Solanum nigrum (SOLNI), Amaranthus retroflexus (AMARE) and Ipomea hederaceae (IPOHE) were sown in standard soil in pots. After cultivation for one day under controlled conditions in a glasshouse (at 24/16° C., day/night; 14 hours light; 65% humidity), the plants were sprayed with an aqueous spray solution derived from the formulation of the technical active ingredient in acetone/water (50:50) solution containing 0.5% Tween 20 (polyoxyethylene sorbitan monolaurate, CAS RN 9005-64-5) to give a final dose of 1000 or 250 g/ha of test compound. The test plants were then grown under controlled conditions in the glasshouse (at 24/16° C., day/night; 14 hours light; 65% humidity) and watered twice daily. After 13 days the test was evaluated (100=total damage to plant; 0=no damage to plant).

Assay [2] deals with Ipomea hederaceae (IPOHE). The description is as above. The settings on record: Ipomoea hederacea, 312 h, 1,000 g/ha, evaluated after 13 days, 100=total damage, 0=no damage, read-out: Percentage damage caused to weed species, pre-emergence, IPOHE. The method, then: as §1
For assay [3], the system named is Setaria faberi (SETFA). The assay is described as above. The settings on record: 312 h, 1,000 g/ha, evaluated after 13 days, 100=total damage, 0=no damage, read-out: Percentage damage caused to weed species, pre-emergence, SETFA. Here is the method:
as §1

For assay [4], the system named is Amaranthus retroflexus (AMARE). The assay is described as above. Conditions: 312 h, 1,000 g/ha, evaluated after 13 days, 100=total damage, 0=no damage, read-out: Percentage damage caused to weed species, pre-emergence, AMARE. Here is the method:
as §1

Assay [5] concerns Echinochloa crus-galli (ECHCG). The description is as above. The settings on record: 312 h, 1,000 g/ha, evaluated after 13 days, 100=total damage, 0=no damage, read-out: Percentage damage caused to weed species, pre-emergence, ECHCG. Here is the method:
as §1

Assay [6] deals with Alopecurus myosuroides (ALOMY). The description is as above. The settings on record: 312 h, 1,000 g/ha, evaluated after 13 days, 100=total damage, 0=no damage, read-out: Percentage damage caused to weed species, pre-emergence, ALOMY. The method, then:
as §1

The test system of assay [7] is Solanum nigrum (SOLNI). The experiment in a line: Post-emergence biological efficacy, glasshouse pot test. The settings on record: 312 h, 1,000 g/ha, evaluated after 13 days, 100=total damage, 0=no damage, read-out: Percentage damage caused to weed species, post-emergence, SOLNI. The method, then:
as §1, with “for 8 days” for “for one day”, “grown on” for “grown”, “in a” for “in the”

Assay [8] concerns Ipomea hederaceae (IPOHE). The assay is described as above. Conditions: Ipomoea hederacea, 312 h, 1,000 g/ha, evaluated after 13 days, 100=total damage, 0=no damage, read-out: Percentage damage caused to weed species, post-emergence, IPOHE. The method, then: as §1, with “for 8 days” for “for one day”, “grown on” for “grown”, “in a” for “in the”
For assay [9], the system named is Setaria faberi (SETFA). The description is as above. The settings on record: 312 h, 1,000 g/ha, evaluated after 13 days, 100=total damage, 0=no damage, read-out: Percentage damage caused to weed species, post-emergence, SETFA. The method, then:
as §1, with “for 8 days” for “for one day”, “grown on” for “grown”, “in a” for “in the”

Assay [10] concerns Amaranthus retroflexus (AMARE). The assay is described as above. The settings on record: 312 h, 1,000 g/ha, evaluated after 13 days, 100=total damage, 0=no damage, read-out: Percentage damage caused to weed species, post-emergence, AMARE. The method, then:
as §1, with “for 8 days” for “for one day”, “grown on” for “grown”, “in a” for “in the”

Assay [11] has as its system Echinochloa crus-galli (ECHCG). Described as above. Conditions: 312 h, 1,000 g/ha, evaluated after 13 days, 100=total damage, 0=no damage, read-out: Percentage damage caused to weed species, post-emergence, ECHCG. Here is the method: as §1, with “for 8 days” for “for one day”, “grown on” for “grown”, “in a” for “in the”
The test system of assay [12] is Alopecurus myosuroides (ALOMY). The description is as above. The settings on record: 312 h, 1,000 g/ha, evaluated after 13 days, 100=total damage, 0=no damage, read-out: Percentage damage caused to weed species, post-emergence, ALOMY. Here is the method: as §1, with “for 8 days” for “for one day”, “grown on” for “grown”, “in a” for “in the”

`COC(=O)c1nc(Cl)cc(NCc2ccco2)c1C` [Compound 26-19, 6-chloro-4-[(furan-2-ylmethyl)-amino]-3-methyl-pyridine-2-carboxylic acid methyl ester]: the pest or weed control at 1000 g/ha with Solanum nigrum (SOLNI) [1] is 100%; in assay [2], 40%; in the assay with Setaria faberi (SETFA) [3], 70%; in assay [4], 100%; in assay [5], 0%; in assay [6], 70%. For the same molecule, the pest or weed control at 1000 g/ha came out at 90% with Solanum nigrum (SOLNI) [7]; 40% in assay [8]; 70% with Setaria faberi (SETFA) [9]; 100% in [10]; 30% in assay [11]; 60% in assay [12].
As for `COC(=O)c1nc(Cl)c(Cl)c(NCc2ncccc2Cl)c1Br` [Compound 32-41, 3-Bromo-4-[(3-chloro-pyridin-2-ylmethyl)-amino]-5,6-dichloro-pyridine-2-carboxylic acid methyl ester], the pest or weed control at 1000 g/ha came to 80% with Solanum nigrum (SOLNI) [1]; 80% in assay [2]; 0% in the assay on Setaria faberi (SETFA) [3]; 90% in assay [4]; 0% in [5]; 0% in [6]. In addition, the pest or weed control at 1000 g/ha in the assay with Solanum nigrum (SOLNI) [7] is 90%; in assay [8], 70%; in the assay with Setaria faberi (SETFA) [9], 60%; in assay [10], 90%; in assay [11], 20%; in [12] it was 20%.
Regarding `COC(=O)c1nc(Cl)cc(NCc2ccc(Cl)cc2)c1Cl` [Compound 5-2, 4-[(4-Chlorophenyl-methyl)-amino]-3,6-dichloro-pyridine-2-carboxylic acid methyl ester], the pest or weed control at 1000 g/ha amounted to 100% in the assay on Solanum nigrum (SOLNI) [1]; 90% in assay [2]; 50% in the assay with Setaria faberi (SETFA) [3]; 100% in assay [4]; 10% in assay [5]; 20% in [6]. For the same molecule, the pest or weed control at 1000 g/ha stood at 100% with Solanum nigrum (SOLNI) [7]; 70% in assay [8]; 70% with Setaria faberi (SETFA) [9]; 100% in [10]; 50% in assay [11]; 50% in assay [12].
`COC(=O)c1nc(Cl)cc(NCC2CC2)c1Cl` [Compound 1-2, 4-Cyclopropylmethyl-amino-3,6-dichloro-pyridine-2-carboxylic acid methyl ester]: the pest or weed control at 1000 g/ha in the assay on Solanum nigrum (SOLNI) [1] is 100%; in [2], 100%; in the assay on Setaria faberi (SETFA) [3] it was 90%; in assay [4], 100%; in assay [5], 90%; in assay [6], 80%. Also, the pest or weed control at 1000 g/ha in the assay on Solanum nigrum (SOLNI) [7] was determined as 90%; in [8] it was 80%; in the assay with Setaria faberi (SETFA) [9] it was 90%; in [10], 100%; in [11], 70%; in [12] it was 90%.
As to `COC(=O)c1nc(Cl)cc(NCc2ccco2)c1Br` [Compound 26-17, 3-Bromo-6-chloro-4-[(furan-2-ylmethyl)-amino]-pyridine-2-carboxylic acid methyl ester], the pest or weed control at 1000 g/ha in the assay on Solanum nigrum (SOLNI) [1] is 100%; in assay [2] it was 100%; with Setaria faberi (SETFA) [3] it was 80%; in [4], 100%; in assay [5], 50%; in assay [6], 50%. Further, the pest or weed control at 1000 g/ha in the assay with Solanum nigrum (SOLNI) [7] is 90%; in assay [8], 60%; in the assay with Setaria faberi (SETFA) [9] it was 80%; in assay [10] it was 100%; in [11], 60%; in assay [12] it was 70%.
As to `C=Cc1c(NCc2ncccc2Cl)cc(Cl)nc1C(=O)OC` [Compound 32-12, 6-Chloro-4-[(3-chloro-pyridin-2-ylmethyl)-amino]-3-ethenyl-pyridine-2-carboxylic acid methyl ester], the pest or weed control at 1000 g/ha with Solanum nigrum (SOLNI) [1] came to 100%; in assay [2], 70%; in the assay with Setaria faberi (SETFA) [3], 80%; in assay [4], 100%; in assay [5] it was 50%; in [6] it was 70%. For the same molecule, the pest or weed control at 1000 g/ha turned out to be 90% with Solanum nigrum (SOLNI) [7]; 50% in assay [8]; 60% with Setaria faberi (SETFA) [9]; 100% in assay [10]; 40% in assay [11]; 50% in assay [12].
Regarding `COC(=O)c1nc(-c2ccc(Cl)c(OC)c2F)cc(NCc2ccc(OC)cc2OC)c1Cl` [Compound 22-164, 3-Chloro-6-(4-chloro-2-fluoro-3-methoxy-phenyl)-4-[(2,4-dimethoxyphenyl-methyl)-amino]-pyridine-2-carboxylic acid methyl ester], the pest or weed control at 1000 g/ha in the assay with Solanum nigrum (SOLNI) [1] stood at 80%; in [2] it was 70%; with Setaria faberi (SETFA) [3] it was 10%; in [4], 80%; in assay [5] it was 60%; in assay [6], 20%. In addition, the pest or weed control at 1000 g/ha was 90% in the assay on Solanum nigrum (SOLNI) [7]; 70% in assay [8]; 60% with Setaria faberi (SETFA) [9]; 100% in assay [10]; 60% in assay [11]; 0% in assay [12].
Consider `C=Cc1c(NCc2ccco2)cc(-c2ccc(Cl)c(OC)c2F)nc1C(=O)OC` [Compound 26-174, 6-(4-chloro-2-fluoro-3-methoxy-phenyl)-3-ethenyl-4-[(furan-2-ylmethyl)-amino]-pyridine-2-carboxylic acid methyl ester], for which the pest or weed control at 1000 g/ha with Solanum nigrum (SOLNI) [1] worked out at 90%; in assay [2] it was 90%; in the assay with Setaria faberi (SETFA) [3] it was 10%; in [4] it was 80%; in assay [5], 30%; in [6] it was 20%. Further, the pest or weed control at 1000 g/ha came out at 100% in the assay with Solanum nigrum (SOLNI) [7]; 50% in [8]; 0% with Setaria faberi (SETFA) [9]; 100% in [10]; 20% in assay [11]; 10% in assay [12].
